ChEMBL document CHEMBL3639272, “2-morpholino-pyrido[3,2-D]pyrimidines” (2013)

Target: Phosphatidylinositol 4,5-bisphosphate 3-kinase catalytic subunit alpha isoform (Homo sapiens, UniProt P42336)
Assay: Biological Assays: The efficacy of compounds of the invention in inhibiting the PI3K induced-lipid phosphorylation may be tested in the following binding assay. The assay combines the scintillation proximity assay technology (SPA, Amersham) with the capacity of neomycin (a polycationic antibiotic) to bind phospholipids with high affinity and specificity. The Scintillation Proximity Assay is based on the properties of weakly emitting isotopes (such as 3H, 125I, 33P). Coating SPA beads with neomycin allows the detection of phosphorylated lipid substrates after incubation with recombinant PI3K and radioactive ATP in the same well, by capturing the radioactive phospholipids to the SPA beads through their specific binding to neomycin.

Phosphatidylinositol 4,5-bisphosphate 3-kinase catalytic subunit alpha isoform, sequence (P42336 whole entry, canonical isoform): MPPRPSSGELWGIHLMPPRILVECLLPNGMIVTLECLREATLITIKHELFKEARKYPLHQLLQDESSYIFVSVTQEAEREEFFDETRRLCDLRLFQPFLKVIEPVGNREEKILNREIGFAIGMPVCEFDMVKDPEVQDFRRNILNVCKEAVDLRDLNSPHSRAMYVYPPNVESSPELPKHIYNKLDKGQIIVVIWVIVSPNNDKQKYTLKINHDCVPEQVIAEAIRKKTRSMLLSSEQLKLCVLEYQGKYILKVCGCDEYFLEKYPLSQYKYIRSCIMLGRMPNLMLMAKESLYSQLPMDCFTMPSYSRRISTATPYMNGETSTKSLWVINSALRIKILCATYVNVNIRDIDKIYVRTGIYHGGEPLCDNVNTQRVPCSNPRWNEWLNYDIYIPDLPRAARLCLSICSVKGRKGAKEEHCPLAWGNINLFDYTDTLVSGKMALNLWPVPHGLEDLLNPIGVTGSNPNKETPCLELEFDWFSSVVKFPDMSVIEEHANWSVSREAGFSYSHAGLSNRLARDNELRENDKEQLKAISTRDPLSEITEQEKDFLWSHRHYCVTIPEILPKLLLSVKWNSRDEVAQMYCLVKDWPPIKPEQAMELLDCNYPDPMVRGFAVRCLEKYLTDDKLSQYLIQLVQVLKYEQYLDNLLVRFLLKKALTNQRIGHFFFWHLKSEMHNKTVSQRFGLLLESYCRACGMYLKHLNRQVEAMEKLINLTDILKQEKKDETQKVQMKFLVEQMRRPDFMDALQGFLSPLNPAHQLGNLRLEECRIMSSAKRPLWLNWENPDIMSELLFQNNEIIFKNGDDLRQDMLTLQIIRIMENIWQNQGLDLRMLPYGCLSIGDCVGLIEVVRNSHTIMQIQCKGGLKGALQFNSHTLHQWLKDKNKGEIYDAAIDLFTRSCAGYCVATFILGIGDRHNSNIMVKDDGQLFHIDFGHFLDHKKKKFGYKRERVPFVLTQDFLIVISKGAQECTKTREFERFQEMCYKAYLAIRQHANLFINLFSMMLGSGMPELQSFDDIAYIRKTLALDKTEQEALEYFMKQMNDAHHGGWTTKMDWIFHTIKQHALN

IC50: 57 nM
SMILES: O=C(O)c1cc(-c2cccc3ccccc23)c2nc(N3CCOCC3)nc(-c3cccc(O)c3)c2n1
